{"source": "patent US20050197350A1", "about": "“Novel quinoline, tetrahydroquinazoline, and pyrimidine derivatives and methods of treatment related to the use thereof” (TAISHO PHARMACEUTICAL CO., LTD., priority 2003, published 2005)"}
{"tested_on": "MCH receptors", "test": "MCH receptor activity class (method not given)", "conditions": "MCH receptor; class by percent of control at 10^-7 M or IC50"}
{"smiles": "COc1cccc(CC(=O)N[C@H]2CC[C@@H](Nc3cc(N(C)C)c4ccccc4n3)CC2)c1", "note": "[compound 67]", "class": "3 (Class 3 The value of percent of control at 10^−7 M was more than 60% or the value of IC50 was more than 200 nM.)"}
{"smiles": "CN(C)c1cc(N[C@H]2CC[C@@H](NC(=O)Cc3ccc(F)cc3)CC2)nc2ccccc12", "note": "[compound 68]", "class": "3 (Class 3 The value of percent of control at 10^−7 M was more than 60% or the value of IC50 was more than 200 nM.)"}
{"smiles": "COc1ccc(CC(=O)N[C@H]2CC[C@@H](Nc3cc(N(C)C)c4ccccc4n3)CC2)cc1", "note": "[compound 69]", "class": "3 (Class 3 The value of percent of control at 10^−7 M was more than 60% or the value of IC50 was more than 200 nM.)"}
{"smiles": "Cc1cc(C(=O)N[C@H]2CC[C@@H](Nc3cc(N(C)C)c4ccccc4n3)CC2)c(C(F)(F)F)o1", "note": "[compound 70]", "class": "3 (Class 3 The value of percent of control at 10^−7 M was more than 60% or the value of IC50 was more than 200 nM.)"}
{"smiles": "Cc1cc(C(=O)N[C@H]2CC[C@@H](Nc3cc(N(C)C)c4ccccc4n3)CC2)c(C)o1", "note": "[compound 71, N-(cis-4-{[4-(dimethylamino)quinolin-2-yl]amino}cyclohexyl)-2,5-dimethyl-3-furamide]", "class": "1 (Class 1: The value of percent of control at 10^−7 M was less than 40% or the value of IC50 was less than 50 nM.)"}
{"smiles": "CCOc1ccccc1C(=O)N[C@H]1CC[C@@H](Nc2cc(N(C)C)c3ccccc3n2)CC1", "note": "[compound 72]", "class": "3 (Class 3 The value of percent of control at 10^−7 M was more than 60% or the value of IC50 was more than 200 nM.)"}
{"smiles": "CN(C)c1cc(N[C@H]2CC[C@@H](NC(=O)c3ccc(F)c(Cl)c3)CC2)nc2ccccc12", "note": "[compound 73, 3-chloro-N-(cis-4-{[4-(dimethylamino)quinolin-2-yl]amino}cyclohexyl)-4-fluorobenzamide]", "class": "1 (Class 1: The value of percent of control at 10^−7 M was less than 40% or the value of IC50 was less than 50 nM.)"}
{"smiles": "Cc1ccc(C(=O)N[C@H]2CC[C@@H](Nc3cc(N(C)C)c4ccccc4n3)CC2)cc1F", "note": "[compound 74, N-(cis-4-{[4-(dimethylamino)quinolin-2-yl]amino}cyclohexyl)-3-fluoro-4-methylbenzamide]", "class": "2 (Class 2: The value of percent of control at 10^−7 M was from 40% to 60% or the value of IC′50 was from 50 nM to 200 nM.)"}
{"smiles": "CN(C)c1cc(N[C@H]2CC[C@@H](NC(=O)CC3CCCC3)CC2)nc2ccccc12", "note": "[compound 75]", "class": "3 (Class 3 The value of percent of control at 10^−7 M was more than 60% or the value of IC50 was more than 200 nM.)"}
{"smiles": "COc1cc(OC)cc(C(=O)N[C@H]2CC[C@@H](Nc3cc(N(C)C)c4ccccc4n3)CC2)c1", "note": "[compound 76, N-(cis-4-{[4-(dimethylamino)quinolin-2-yl]amino}cyclohexyl)-3,5-dimethoxybenzamide]", "class": "3 (Class 3 The value of percent of control at 10^−7 M was more than 60% or the value of IC50 was more than 200 nM.)"}
{"smiles": "CN(C)c1cc(N[C@H]2CC[C@@H](NC(=O)c3ccc(C#N)cc3)CC2)nc2ccccc12", "note": "[compound 77]", "class": "3 (Class 3 The value of percent of control at 10^−7 M was more than 60% or the value of IC50 was more than 200 nM.)"}
{"smiles": "CN(C)c1cc(N[C@H]2CC[C@@H](NC(=O)c3cc(C(F)(F)F)cc(C(F)(F)F)c3)CC2)nc2ccccc12", "note": "[compound 78, N-(cis-4-{[4-(dimethylamino)quinolin-2-yl]amino}cyclohexyl)-3,5-bis(trifluoromethyl)benzamide]", "class": "2 (Class 2: The value of percent of control at 10^−7 M was from 40% to 60% or the value of IC′50 was from 50 nM to 200 nM.)"}
{"smiles": "CN(C)c1cc(N[C@H]2CC[C@@H](NC(=O)/C=C/c3ccc([N+](=O)[O-])cc3)CC2)nc2ccccc12", "note": "[compound 79]", "class": "3 (Class 3 The value of percent of control at 10^−7 M was more than 60% or the value of IC50 was more than 200 nM.)"}
{"smiles": "CN(C)c1cc(N[C@H]2CC[C@@H](NC(=O)Cc3ccccc3Br)CC2)nc2ccccc12", "note": "[compound 80]", "class": "3 (Class 3 The value of percent of control at 10^−7 M was more than 60% or the value of IC50 was more than 200 nM.)"}
{"smiles": "Cc1cc(C(=O)N[C@H]2CC[C@@H](Nc3cc(N(C)C)c4ccccc4n3)CC2)ccc1F", "note": "[compound 81, N-(cis-4-{[4-(dimethylamino)quinolin-2-yl]amino}cyclohexyl)-4-fluoro-3-methylbenzamide]", "class": "1 (Class 1: The value of percent of control at 10^−7 M was less than 40% or the value of IC50 was less than 50 nM.)"}
{"smiles": "CN(C)c1cc(N[C@H]2CC[C@@H](NC(=O)c3ccccc3SC(F)F)CC2)nc2ccccc12", "note": "[compound 82]", "class": "3 (Class 3 The value of percent of control at 10^−7 M was more than 60% or the value of IC50 was more than 200 nM.)"}
{"smiles": "CN(C)c1cc(N[C@H]2CC[C@@H](NC(=O)c3cc(Cl)sc3Cl)CC2)nc2ccccc12", "note": "[compound 83]", "class": "2 (Class 2: The value of percent of control at 10^−7 M was from 40% to 60% or the value of IC′50 was from 50 nM to 200 nM.)"}
{"smiles": "CCCSc1ncccc1C(=O)N[C@H]1CC[C@@H](Nc2cc(N(C)C)c3ccccc3n2)CC1", "note": "[compound 84]", "class": "3 (Class 3 The value of percent of control at 10^−7 M was more than 60% or the value of IC50 was more than 200 nM.)"}
{"smiles": "CN(C)c1cc(N[C@H]2CC[C@@H](NC(=O)c3cc(C(C)(C)C)nn3Cc3ccccc3)CC2)nc2ccccc12", "note": "[compound 85]", "class": "3 (Class 3 The value of percent of control at 10^−7 M was more than 60% or the value of IC50 was more than 200 nM.)"}
{"smiles": "CN(C)c1cc(N[C@H]2CC[C@@H](NC(=O)c3cc(C(C)(C)C)nn3C)CC2)nc2ccccc12", "note": "[compound 86]", "class": "3 (Class 3 The value of percent of control at 10^−7 M was more than 60% or the value of IC50 was more than 200 nM.)"}
{"smiles": "C/C(=C\\c1ccccc1)C(=O)N[C@H]1CC[C@@H](Nc2cc(N(C)C)c3ccccc3n2)CC1", "note": "[compound 87]", "class": "3 (Class 3 The value of percent of control at 10^−7 M was more than 60% or the value of IC50 was more than 200 nM.)"}
{"smiles": "CN(C)c1cc(N[C@H]2CC[C@@H](NC(=O)c3cncc(Br)c3)CC2)nc2ccccc12", "note": "[compound 88]", "class": "3 (Class 3 The value of percent of control at 10^−7 M was more than 60% or the value of IC50 was more than 200 nM.)"}
{"smiles": "CN(C)c1cc(N[C@H]2CC[C@@H](NC(=O)Cc3cccc4ccccc34)CC2)nc2ccccc12", "note": "[compound 89]", "class": "3 (Class 3 The value of percent of control at 10^−7 M was more than 60% or the value of IC50 was more than 200 nM.)"}
{"smiles": "Cc1cc(C(=O)N[C@H]2CC[C@@H](Nc3cc(N(C)C)c4ccccc4n3)CC2)nn1C(C)(C)C", "note": "[compound 90]", "class": "3 (Class 3 The value of percent of control at 10^−7 M was more than 60% or the value of IC50 was more than 200 nM.)"}
{"smiles": "CN(C)c1cc(N[C@H]2CC[C@@H](NC(=O)c3csc4ccccc34)CC2)nc2ccccc12", "note": "[compound 91]", "class": "3 (Class 3 The value of percent of control at 10^−7 M was more than 60% or the value of IC50 was more than 200 nM.)"}
{"smiles": "CN(C)c1cc(N[C@H]2CC[C@@H](NC(=O)c3ccccc3)CC2)nc2ccccc12", "note": "[compound 93]", "class": "3 (Class 3 The value of percent of control at 10^−7 M was more than 60% or the value of IC50 was more than 200 nM.)"}
{"smiles": "CN(C)c1cc(N[C@H]2CC[C@@H](NC(=O)c3cc4ccccc4s3)CC2)nc2ccccc12", "note": "[compound 94]", "class": "3 (Class 3 The value of percent of control at 10^−7 M was more than 60% or the value of IC50 was more than 200 nM.)"}
{"smiles": "CN(C)c1cc(N[C@H]2CC[C@@H](NC(=O)COCc3ccccc3)CC2)nc2ccccc12", "note": "[compound 95]", "class": "3 (Class 3 The value of percent of control at 10^−7 M was more than 60% or the value of IC50 was more than 200 nM.)"}
{"smiles": "CN(C)c1cc(N[C@H]2CC[C@@H](NC(=O)COc3ccc(Cl)cc3)CC2)nc2ccccc12", "note": "[compound 96]", "class": "1 (Class 1: The value of percent of control at 10^−7 M was less than 40% or the value of IC50 was less than 50 nM.)"}
{"smiles": "CN(C)c1cc(N[C@H]2CC[C@@H](NC(=O)C3CCCCC3)CC2)nc2ccccc12", "note": "[compound 97]", "class": "3 (Class 3 The value of percent of control at 10^−7 M was more than 60% or the value of IC50 was more than 200 nM.)"}
{"smiles": "Cc1onc(-c2ccccc2Cl)c1C(=O)N[C@H]1CC[C@@H](Nc2cc(N(C)C)c3ccccc3n2)CC1", "note": "[compound 98]", "class": "1 (Class 1: The value of percent of control at 10^−7 M was less than 40% or the value of IC50 was less than 50 nM.)"}
{"smiles": "CN(C)c1cc(N[C@H]2CC[C@@H](NC(=O)C3(c4ccc(Cl)cc4)CCCC3)CC2)nc2ccccc12", "note": "[compound 99]", "class": "2 (Class 2: The value of percent of control at 10^−7 M was from 40% to 60% or the value of IC′50 was from 50 nM to 200 nM.)"}
{"smiles": "Cc1onc(-c2c(F)cccc2Cl)c1C(=O)N[C@H]1CC[C@@H](Nc2cc(N(C)C)c3ccccc3n2)CC1", "note": "[compound 100, 3-(2-chloro-6-fluorophenyl)-N-(cis-4-{[4-(dimethylamino)quinolin-2-yl]amino}cyclohexyl)-5-methylisoxazole-4-carboxamide]", "class": "1 (Class 1: The value of percent of control at 10^−7 M was less than 40% or the value of IC50 was less than 50 nM.)"}
{"smiles": "CC(C)S(=O)(=O)c1csc(C(=O)N[C@H]2CC[C@@H](Nc3cc(N(C)C)c4ccccc4n3)CC2)c1Cl", "note": "[compound 101]", "class": "3 (Class 3 The value of percent of control at 10^−7 M was more than 60% or the value of IC50 was more than 200 nM.)"}
{"smiles": "CN(C)c1cc(N[C@H]2CC[C@@H](NC(=O)c3ccc([N+](=O)[O-])cc3Cl)CC2)nc2ccccc12", "note": "[compound 102]", "class": "3 (Class 3 The value of percent of control at 10^−7 M was more than 60% or the value of IC50 was more than 200 nM.)"}
{"smiles": "Cc1cc(C(=O)N[C@H]2CC[C@@H](Nc3cc(N(C)C)c4ccccc4n3)CC2)n(C)n1", "note": "[compound 103]", "class": "3 (Class 3 The value of percent of control at 10^−7 M was more than 60% or the value of IC50 was more than 200 nM.)"}
{"smiles": "COc1ccc(C(=O)N[C@H]2CC[C@@H](Nc3cc(N(C)C)c4ccccc4n3)CC2)cc1OC", "note": "[compound 104]", "class": "3 (Class 3 The value of percent of control at 10^−7 M was more than 60% or the value of IC50 was more than 200 nM.)"}
{"smiles": "CN(C)c1cc(N[C@H]2CC[C@@H](NC(=O)c3cccc(F)c3)CC2)nc2ccccc12", "note": "[compound 105, N-(cis-4-{[4-(dimethylamino)quinolin-2-yl]amino}cyclohexyl)-3-fluorobenzamide]", "class": "2 (Class 2: The value of percent of control at 10^−7 M was from 40% to 60% or the value of IC′50 was from 50 nM to 200 nM.)"}
